This test can be described thus: RSV-A Assay: The description is Japanese.

Where only a bound is given, the exact number is not on record here.

What is called EC50 is the concentration giving half of the maximal effect. Read a low EC50 as an effect from little substance. `O=C1Nc2ccccc2C(c2ccccc2)=NC1Nc1ccnc(-c2ccccc2)n1` (stereo not drawn) returned an EC50 greater than 0.8 µM.

Take `CCOC(=O)c1c(F)cc(F)cc1F`: the EC50 was greater than 0.8 µM.

Compound `CCOC(=O)c1nc(C)sc1NCCOC` registered an EC50 of less than 0.4 µM.

In the case of `C[C@H]1CN(c2ncccc2-c2nnc(NC3N=C(c4ccccc4)c4ccccc4NC3=O)o2)CCO1` (stereo partly drawn), the half-maximal effective concentration (EC50) result was “in the range around 0.6 µM”.

`O=C1Nc2ccccc2C(c2ccccc2)=N[C@@H]1Nc1nnc(-c2nc(C(F)(F)F)sc2N[C@@H]2CCOC2)o1` returned an EC50 of less than 0.4 µM.

Turning to `COCC1(Nc2cc(C(F)(F)F)cnc2-c2nnc(N[C@H]3N=C(c4ccccc4)c4ccccc4NC3=O)o2)CC1`, the EC50 was greater than 0.8 µM.

The compound `CC1(Nc2nnc(-c3ccc(F)cc3)o2)N=C(c2ccccc2)c2ccccc2NC1=O` (stereo not drawn) came in with an EC50 greater than 0.8 µM.

On to `O=C1Nc2ccccc2C(c2ccccc2)=NC1Nc1nnc(-c2cnccn2)o1` (stereo not drawn), for which the half-maximal effective concentration (EC50) was greater than 0.8 µM.

Consider `O=C1Nc2ccccc2C(c2ccccc2)=NC1Nc1nnc(-c2ccc(N3CCCC3)cc2)o1` (stereo not drawn), for which the concentration for a half-maximal effect (EC50) entry was “in the range around 0.6 µM”.

On to `Cc1ccc(-c2nnc(N[C@H]3N=C(c4ccccc4)c4ccccc4NC3=O)o2)c(N2CCOCC2)n1`, for which the EC50 is less than 0.4 µM.

Take `N#Cc1ccc(-c2nnc(NC3N=C(c4ccccc4)c4ccccc4NC3=O)s2)cc1` (stereo not drawn): the EC50 entry was “in the range around 0.6 µM”.

Take `CCOC(=O)c1cnn2c1N(CCOC)CCC2`: the EC50 result was “in the range around 0.6 µM”.

On to `O=C1Nc2ccccc2C(c2ccccc2)=NC1Nc1nnc([C@H]2COCCN2)o1` (stereo partly drawn), for which the EC50 was greater than 0.8 µM.

Take `O=C1Nc2ccccc2C(c2ccccc2)=N[C@@H]1Nc1nnc(-c2cc3ccccc3nc2N2CCOCC2)o1`: the EC50 is less than 0.4 µM.

`O=C1Nc2ccccc2C(c2ccccc2)=N[C@@H]1Nc1nnc(-c2csc(N3CCOCC3)n2)o1`: the EC50 entry was “in the range around 0.6 µM”.

For the compound `COc1ccc(-c2nnc(N[C@H]3N=C(c4ccccc4)c4ccccc4NC3=O)o2)c(N2CCOCC2)n1`, the EC50 is less than 0.4 µM.

As to `O=C1Nc2ccccc2C(c2ccccc2)=NC1Nc1nnc(-c2cc[nH]c(=O)c2)o1` (stereo not drawn), the EC50 was greater than 0.8 µM.

`O=C1Nc2ccccc2C(c2ccccc2)=N[C@@H]1Nc1nnc(-c2oc3ccccc3c2N2CCOCC2)o1`: the EC50 was less than 0.4 µM.

For `COC(=O)c1cc(C2CC2)sc1N1CCOCC1`, the EC50 is less than 0.4 µM.

As to `O=C1Nc2ccccc2C(c2ccccc2)=N[C@@H]1Nc1nnc(-c2ccc(C(F)(F)F)nc2N2CC3CCC(C2)O3)o1`, the EC50 result was “in the range around 0.6 µM”.

For the compound `O=C1Nc2ccccc2C(c2ccccc2)=NC1Nc1nnc(-c2nc(Br)sc2N2CCOCC2)o1` (stereo not drawn), the EC50 was less than 0.4 µM.

As for `O=C1Nc2ccccc2C(c2ccccc2)=N[C@H]1Nc1nnc(-c2nc(C(F)(F)F)sc2N2CCO[C@@H]3C[C@@H]32)o1`, the concentration giving a half-maximal response (EC50) was greater than 0.8 µM.

`O=C1Nc2ccccc2C(c2ccccc2)=N[C@@H]1Nc1nnc(-c2cnc(-n3cccn3)nc2N2CCOCC2)o1` had an EC50 greater than 0.8 µM.

The compound `CC(F)(F)c1nc(-c2nnc(N[C@H]3N=C(c4ccccc4)c4ccccc4NC3=O)o2)c(N2CCOCC2)s1` gave a half-maximal effective concentration (EC50) of less than 0.4 µM.

Regarding `O=C1Nc2ccccc2C(c2ccccc2)=NC1Nc1nnc(-c2ccccc2NCc2ccccn2)o1` (stereo not drawn), the EC50 is greater than 0.8 µM.

In turn, `O=C1Nc2ccccc2C(c2ccccc2)=N[C@@H]1Nc1nnc(-c2nc(C(F)(F)F)sc2N2CCOCC2)o1` registered an EC50 of less than 0.4 µM.

`O=C1Nc2ccccc2C(c2ccc(F)cc2)=NC1Nc1nnc(-c2ccc(F)cc2)o1` (stereo not drawn) displayed a 50% effective concentration (EC50) greater than 0.8 µM.

Compound `Cc1nc(-c2nnc(NC3N=C(c4ccccc4)c4ccccc4NC3=O)o2)ccc1F` (stereo not drawn) yielded a 50% effective concentration (EC50) greater than 0.8 µM.

`O=C1Nc2ccccc2C(c2ccccc2)=N[C@@H]1Nc1nnc(-c2ncc(C(F)(F)F)cc2C2CC2)o1` yielded an EC50 greater than 0.8 µM.

Turning to `O=C1Nc2ccccc2C(c2ccccc2)=NC1Nc1nnc(-c2c(F)cc(N3CCOCC3)cc2F)o1` (stereo not drawn), the EC50 was greater than 0.8 µM.

With `Cc1cc(-c2nnc(N[C@H]3N=C(c4ccccc4)c4ccccc4NC3=O)o2)n(C2CCOCC2)n1`, the EC50 was greater than 0.8 µM.

Consider `CC(C)(O)c1nc(-c2nnc(N[C@H]3N=C(c4ccccc4)c4ccccc4NC3=O)o2)c(N2CCOCC2)s1`, for which the concentration giving a half-maximal response (EC50) was less than 0.4 µM.

`O=C1Nc2ccccc2C(c2ccccc2)=N[C@@H]1Nc1nnc(-c2ncc(C(F)(F)F)cc2N2CC3CCC(C2)O3)o1` had an EC50 of less than 0.4 µM.

Consider `O=C1Nc2ccccc2C(c2ccccc2)=N[C@@H]1Nc1nnc(-c2cn(-c3ccc(C(F)(F)F)cn3)nc2N2CCOCC2)o1`, for which the EC50 result was “in the range around 0.6 µM”.

In turn, `COC(=O)c1occc1N1CCOCC1` returned an EC50 of less than 0.4 µM.

Turning to `CN(C)CCOc1ccccc1-c1nnc(NC2N=C(c3ccccc3)c3ccccc3NC2=O)o1` (stereo not drawn), the EC50 is greater than 0.8 µM.

With `C[C@H]1COCCN1c1ncccc1-c1nnc(NC2N=C(c3ccccc3)c3ccccc3NC2=O)o1` (stereo partly drawn), the EC50 is greater than 0.8 µM.

As for `Cc1nc(-c2nnc(N[C@H]3N=C(c4ccccc4)c4ccccc4NC3=O)o2)c(C2CCOCC2)s1`, the EC50 was less than 0.4 µM.

`CS(=O)(=O)c1ccc(-c2nnc(NC3N=C(c4ccccc4)c4ccccc4NC3=O)o2)nc1` (stereo not drawn) yielded an EC50 greater than 0.8 µM.

`O=C1Nc2ccccc2C(c2ccccc2)=NC1Nc1nnc(-c2cccc(N3CCOCC3)c2)o1` (stereo not drawn): the EC50 is greater than 0.8 µM.

Consider `CCOC(=O)c1ncc(C(F)F)cc1N1CCOCC1`, for which the EC50 is less than 0.4 µM.

`Cc1ccc(-c2nnc(N[C@H]3N=C(c4ccccc4)c4ccccc4NC3=O)o2)c(N2CC3CCC(C2)O3)n1` returned a concentration giving a half-maximal response (EC50) of less than 0.4 µM.

As to `O=C1Nc2ccccc2C(c2ccccc2)=NC1Nc1nnc(-c2ccc(F)cn2)o1` (stereo not drawn), the EC50 is greater than 0.8 µM.

`COc1cccc(-c2nnc(NC3N=C(c4ccccc4)c4ccccc4NC3=O)o2)c1` (stereo not drawn) came in with an EC50 greater than 0.8 µM.

As for `C#Cc1nc(C(=O)O)c(N2CCOCC2)s1`, the EC50 is less than 0.4 µM.

In the case of `O=C1Nc2ccccc2C(c2ccccc2)=N[C@@H]1Nc1nnc(-c2nc3ccccc3nc2N2CCOCC2)o1`, the EC50 is less than 0.4 µM.

The compound `COc1ccccc1-c1nnc(NC2N=C(c3ccccc3)c3ccccc3NC2=O)o1` (stereo not drawn) yielded an EC50 greater than 0.8 µM.

For `O=C1Nc2ccccc2C(c2ccccc2)=NC1Nc1nnc(-c2ccc(N3CCOCC3)c(F)c2)o1` (stereo not drawn), the EC50 is greater than 0.8 µM.

For `COCC(C)(C)Nc1cc(C(F)(F)F)cnc1-c1nnc(N[C@H]2N=C(c3ccccc3)c3ccccc3NC2=O)o1`, the EC50 was greater than 0.8 µM.

On to `O=C1Nc2ccccc2C(c2ccccc2)=N[C@@H]1Nc1nnc(-c2nsnc2N2CCOCC2)o1`, for which the EC50 is less than 0.4 µM.

In turn, `C[C@@H]1CN(c2ccc(-c3nnc(N[C@H]4N=C(c5ccccc5)c5ccccc5NC4=O)o3)c(Cl)c2)C[C@H](C)O1` showed a concentration giving a half-maximal response (EC50) greater than 0.8 µM.

Compound `CCOC(=O)c1ccnc2ccc(COC)cc12` had an EC50 greater than 0.8 µM.

`O=C1Nc2ccccc2C(c2ccccc2)=NC1Nc1nc(-c2ccccc2)no1` (stereo not drawn) registered an EC50 greater than 0.8 µM.

`O=C1Nc2ccccc2C(c2ccccc2)=NC1Nc1nnc(-c2ccccc2N2CCCOCC2)o1` (stereo not drawn) returned an EC50 greater than 0.8 µM.

Compound `O=C1Nc2ccccc2C(c2ccccc2)=NC1Nc1nc2ccccc2s1` (stereo not drawn) registered an EC50 greater than 0.8 µM.

For `Cc1nsc(N2CCOCC2)c1-c1nnc(N[C@H]2N=C(c3ccccc3)c3ccccc3NC2=O)o1`, the EC50 entry was “in the range around 0.6 µM”.

As for `O=C1Nc2ccccc2C(c2ccccc2)=NC1Nc1nnc(-c2cnccc2N2CCOCC2)o1` (stereo not drawn), the EC50 result was “in the range around 0.6 µM”.

For the compound `Cc1ccc(-c2nnc(NC3N=C(c4ccccc4)c4ccccc4NC3=O)o2)s1` (stereo not drawn), the 50% effective concentration (EC50) was greater than 0.8 µM.

Compound `O=C1Nc2ccccc2C(c2ccccc2)=N[C@@H]1Nc1nnc(-c2ccccc2N2CCOCC2)o1` yielded an EC50 of less than 0.4 µM.

Compound `COC(=O)c1ccc(Cl)nc1N1CCOCC1` returned an EC50 of less than 0.4 µM.

Take `O=C1Nc2c(F)cccc2C(c2ccccc2)=NC1Nc1nnc(-c2ccc(N3CCOCC3)cc2)o1` (stereo not drawn): the EC50 entry was “in the range around 0.6 µM”.

Turning to `N#Cc1ccc(-c2nnc(NC3N=C(c4ccccc4)c4ccccc4NC3=O)o2)nc1` (stereo not drawn), the EC50 result is “in the range around 0.6 µM”.

For `O=C1Nc2ccccc2C(c2ccccc2)=NC1Nc1nnc([C@@H]2COCCN2)o1` (stereo partly drawn), the EC50 was greater than 0.8 µM.

Consider `O=C1Nc2ccccc2C(c2ccccc2)=NC1Nc1nnc(-c2cccnc2N2CCC(O)CC2)o1` (stereo not drawn), for which the EC50 is greater than 0.8 µM.

Regarding `O=C1Nc2ccccc2C(c2ccccc2)=N[C@@H]1Nc1nnc(-c2ccc(C(F)(F)F)nc2N2C3CCC2COC3)o1`, the EC50 was greater than 0.8 µM.

In turn, `O=C1Nc2ccccc2C(c2ccccc2)=NC1Nc1nnc(-c2ccccc2)[nH]1` (stereo not drawn) had an EC50 greater than 0.8 µM.

For `O=C1Nc2ccccc2C(c2ccccc2)=NC1Nc1nnc(-c2cccnc2N2CCCC(F)(F)C2)o1` (stereo not drawn), the EC50 is greater than 0.8 µM.

As for `COC(=O)c1cc(Br)c(C2CC2)nc1Cl`, the EC50 is less than 0.4 µM.

`O=C1Nc2ccccc2C(c2ccccc2)=NC1Nc1nnc(-c2ccncc2)[nH]1` (stereo not drawn) had an EC50 greater than 0.8 µM.

For `O=C(O)c1cnc(C(F)(F)F)nc1N1CCOCC1`, the EC50 was less than 0.4 µM.

`O=C1Nc2ccccc2C(c2ccccc2)=NC1Nc1nnc(-c2ccc(Cl)o2)o1` (stereo not drawn) gave an EC50 greater than 0.8 µM.

With `O=C1Nc2ccccc2C(c2ccccc2)=NC1Nc1nnc(-c2ccc(-n3cnnc3)cc2)o1` (stereo not drawn), the EC50 was greater than 0.8 µM.

In the case of `O=C1Nc2ccccc2C(c2ccccc2)=NC1Nc1nnc(-c2cnco2)o1` (stereo not drawn), the EC50 is greater than 0.8 µM.

For `O=C1Nc2ccccc2C(c2ccccc2)=NC1Nc1nnc(-c2cccnc2)o1` (stereo not drawn), the EC50 was greater than 0.8 µM.

For `O=C1Nc2ccccc2C(c2ccccc2)=NC1Nc1nnc(-c2ccccn2)o1` (stereo not drawn), the EC50 result is “in the range around 0.6 µM”.

For the compound `Cn1ncc(N2CCOCC2)c1-c1nnc(N[C@H]2N=C(c3ccccc3)c3ccccc3NC2=O)o1`, the EC50 result was “in the range around 0.6 µM”.

Consider `N#Cc1ccc(N2CCOCC2)c(-c2nnc(N[C@H]3N=C(c4ccccc4)c4ccccc4NC3=O)o2)n1`, for which the EC50 was less than 0.4 µM.

In the case of `Cc1ccc2oc(NC3N=C(c4ccccc4)c4ccccc4NC3=O)nc2c1` (stereo not drawn), the EC50 was greater than 0.8 µM.

As for `O=C1Nc2ccccc2C(c2ccccc2)=NC1Nc1nnc(-c2ccc(N3CCOCC3)nc2)o1` (stereo not drawn), the EC50 was less than 0.4 µM.

As for `CCOC(=O)c1ccnc2ccc(OC)cc12`, the EC50 is greater than 0.8 µM.

Turning to `N#Cc1cnc(N2CCOCC2)c(-c2nnc(N[C@H]3N=C(c4ccccc4)c4ccccc4NC3=O)o2)c1`, the EC50 is less than 0.4 µM.

As for `CC(C)c1nnc(NC2N=C(c3ccccc3)c3ccccc3NC2=O)o1` (stereo not drawn), the EC50 is greater than 0.8 µM.

`O=C1Nc2ccccc2C(c2ccccc2)=NC1Nc1nnc(-c2cccnc2N2C[C@@H]3C[C@H]2CO3)o1` (stereo partly drawn) registered an EC50 greater than 0.8 µM.

(Values after ChEMBL document CHEMBL5729210, “Benzodiazepine derivatives as RSV inhibitors” (2022).)
